According to paper PMC8216263 (Pharmaceutical Biology, 2021):
Read-outs that look alike come from different tables or passages of the source.

Columns and labels:
[1] = Urinary excretion of GA and PCA after oral RLQ in healthy subjects; format: in vivo, human; conditions: for fraction unbound / dose excreted: human, urine, oral, 8 g; for fraction unbound: urine within 24 h, read-out: Fu (fraction of administered dose excreted in the urine); for dose excreted: abstract summary, read-out: 24 h urine recovery rate
Method: In the single-dose study, 8 g of RLQ was administered orally on day 1. A 7-d washout time was designed between single-dose and multiple-dose pharmacokinetic studies. In the multiple-dose study, subjects received multiple doses of RLQ (8 g, t.i.d.) for seven consecutive days from day 8 to day 14 and a single dose of RLQ (8 g) on the morning of day 15. On days 1 and 15, blood samples (3 mL) were collected from the antecubital vein catheter before drug administration and at 0.08, 0.17, 0.33, 0.5, 0.75, 1, 1.5, 2, 3, 4, 6, 8, 12 and 24 h after dosing. Additional pre-dose samples were collected in the morning on days 12, 13 and 14. Urine samples were collected over a 12 h interval before dosing and at the following time intervals thereafter: 0–2, 2–5, 5–8, 8–12 and 12–24 h. All samples were stored at −80 °C until analysis.
All analytes were extracted from plasma and urine samples by simple protein precipitation extraction method using acetonitrile. Briefly, 5 µL of internal standard solution and 300 μL of acetonitrile were added to the spiked blank matrix (100 μL) and vortexed for 3 min and then centrifuged at 13,000 × g for 10 min. The supernatant was transferred and dried using a flow of nitrogen. The residue was re-dissolved in 100 µL of 10% methanol solution containing 0.1% formic acid. An aliquot of 5 µL solution was injected into the LC-MS/MS system for analysis.
The GA and PCA concentrations were determined using a validated LC-MS/MS method with some modifications (Ma et al. [2015]). The chromatographic separation was performed on an Acquity Ultra Performance LC instrument (Waters, Milford, MA) with a gradient programme in an ACQUITY UPLC BEH C18 column (2.1 mm × 100 mm, 1.7 μm). The gradient programme was performed with the mobile phase (0.3 mL/min) consisting of 0.1% formic acid aqueous solution (A) and acetonitrile (B) as follows: 97% A (0–8.5 min), 60% A (8.7–11 min), 10% A (11.5–13.5 min) and 97% A (14–15 min). The injection volume was 2 µL. The mass spectrometry analysis was performed on an AB Sciex Triple Quad 5500 MS (Framingham, MA) equipped with an ESI source. The quantitative analyses of GA, PCA and chloramphenicol were performed in a negative mode by multiple reaction monitoring (MRM) with the ion transitions of m/z 169.0→125.1, 153.1→109.0 and 321.1→152.1, respectively.
Pharmacokinetic parameters of GA and PCA were estimated with a non-compartmental method using Phoenix WinNonlin version 6.4 (Certara, Princeton, NJ). The peak plasma concentration (Cmax) and time to reach the peak plasma concentration (Tmax) were calculated from the actual plasma concentration data. The area under the plasma concentration-time curve from zero to the last measurable concentration (AUC0–t) was calculated via the linear trapezoidal rule. AUC0–∞ was calculated using the following formula: AUC0–∞ = AUC0–t + Ct/ke, where Ct is the last plasma concentration measured. The terminal elimination half-life (t1/2) was calculated as 0.693/ke, and the total clearance (CL/F) was calculated as dose/AUC0–∞. The accumulation index was calculated as AUCss/AUC0–t.

[2] = Stability of GA and PCA in quality control samples (biological matrix); format: physicochemical, human; conditions: for Long-term Stability: 3 months at −80 °C; for Post-preparative Stability: 24 h at 4 °C, n = 3; for Bench-top Stability: 24 h at 25 °C
Method: The analytical method’s validation was conducted according to the FDA’s Bio-analytical Method Validation guidance (USFDA [2018]). Blank samples were obtained from six subjects for selectivity. The calibration curves were assessed by plotting the peak response ratio against the nominal concentrations of GA (1.00, 2.00, 10.0, 40.0, 100, 200, 320 and 400 μg/L) and PCA (0.50, 1.00, 5.00, 20.0, 50.0, 100, 160 and 200 μg/L). The low, medium and high QC concentrations were 3.00, 60.0 and 300 μg/L and 1.50, 30.0 and 150 μg/L for GA and PCA, respectively. Intra- and inter-day accuracy and precision were measured using six replicates of QCs in three separate batches. QCs’ acceptance criteria were ± 15% SD of nominal values, and the precision was ± 15% RSD, except for LLOQ ± 20% SD. The matrix effect and recovery were investigated using six lots of blank matrix from individual sources. Stability was assessed by spiking low and high QCs in blank samples using four conditions: for post-preparative stability (24 h at 4 °C), bench-top stability (24 h at 25 °C), long-term stability (3 months at −80 °C) and freeze-thaw stability (for three cycles).

[3] = high QC (GA 300.0, PCA 150.0 μg/L)
[4] = low QC (GA 3.00, PCA 1.50 μg/L)

Structure (SMILES)	fraction unbound ([1]; multiple dose RLQ 8 g)	fraction unbound ([1]; single dose RLQ 8 g)	dose excreted [1] [%]	amount recovered in urine within 24 h ([1]; single dose RLQ 8 g) [mg]	Long-term Stability [2, 3] [%]	Long-term Stability [2, 4] [%]	Post-preparative Stability [2, 3] [%]	Post-preparative Stability [2, 4] [%]	Bench-top Stability [2, 3] [%]	Bench-top Stability [2, 4] [%]	Three freeze-thaw cycles Stability [2, 3] [%]	Three freeze-thaw cycles Stability [2, 4] [%]	mean urinary concentration ([1]; first 2 h after administration of RLQ 8 g) [µg/L]
O=C(O)c1cc(O)c(O)c(O)c1 [GA, gallic acid]	0.107	~0.086	~10	2.48 ± 1.34	93.68	99.70	94.37	88.48	94.81	98.11	93.17	85.89	
O=C(O)c1ccc(O)c(O)c1 [PCA, protocatechuic acid]		~0.042	~5	0.046 ± 0.040	93.67	99.04	96.93	90.60	95.44	97.69	94.22	87.22	~150
